From ChEMBL document CHEMBL1136455, “The synthesis and antibacterial activity of 1,3,4-thiadiazole phenyl oxazolidinone analogues” (Bioorg Med Chem Lett, 2003)
≈ marks a conversion by molar mass, not a printed value.

Key:
Format in all cases: functional
Enterococcus faecalis = experiment: In vitro antibacterial activity against vancomycin resistant Enterococcus faecalis UC 9217 (VREA)
Haemophilus influenzae = experiment: In vitro antibacterial activity against ampicillin resistant Haemophilus influenzae 30063 (B-lactamase +)
Moraxella catarrhalis = experiment: In vitro antibacterial activity against Moraxella catarrhalis 30607
Staphylococcus aureus [1] = experiment: In vitro antibacterial activity against methicillin resistant Staphylococcus aureus UC 12673 (MRSA)
[2] = system: Staphylococcus epidermidis; experiment: In vitro antibacterial activity against methicillin resistant Staphylococcus epidermidis UC 12084
Streptococcus pneumoniae = experiment: In vitro antibacterial activity against penicillin sensitive Streptococcus pneumoniae UC 9912
Staphylococcus aureus [3] = experiment: In vitro antibacterial activity against methicillin susceptible Staphylococcus aureus UC 9213 (MSSA)
Mus musculus [4] = experiment: In vivo efficacy to protect the Staphylococcus aureus infected mouse and the activity was reported using Linezolid as a control with ED50 = 5
Mus musculus [5] = experiment: In vivo efficacy to protect the Staphylococcus aureus infected mouse and the activity was reported using Linezolid as a control with ED50 = 5.6
Mus musculus [6] = experiment: In vivo efficacy to protect the Staphylococcus aureus infected mouse and the activity was reported using Linezolid as a control with ED50 = 2.2
Mus musculus [7] = experiment: In vivo efficacy to protect the Staphylococcus aureus infected mouse and the activity was reported using Linezolid as a control with ED50 = 3.8
Mus musculus [8] = experiment: In vivo efficacy to protect the Staphylococcus aureus infected mouse and the activity was reported using Linezolid as a control with ED50 = 3.1
Mus musculus [9] = experiment: In vivo efficacy to protect the Staphylococcus aureus infected mouse and the activity was reported using Linezolid as a control with ED50 = 3.7
Mus musculus [10] = experiment: In vivo efficacy to protect the Staphylococcus aureus infected mouse and the activity was reported using Linezolid as a control with ED50 =4
Mus musculus [11] = experiment: In vivo efficacy to protect the Staphylococcus aureus infected mouse and the activity was reported using Linezolid as a control with ED50 = 4.3

CC(=O)NC[C@H]1CN(c2ccc(-c3nnc(CS(C)(=O)=O)s3)c(F)c2)C(=O)O1
MIC (Enterococcus faecalis): 2 µg/mL (≈ 4.67 µM)
MIC (Haemophilus influenzae): 4 µg/mL (≈ 9.34 µM)
MIC (Moraxella catarrhalis): 4 µg/mL (≈ 9.34 µM)
MIC (Staphylococcus aureus [1]): 4 µg/mL (≈ 9.34 µM)
MIC [2]: 1 µg/mL (≈ 2.33 µM)
MIC (Streptococcus pneumoniae): < 0.5 µg/mL
MIC (Staphylococcus aureus [3]): 4 µg/mL (≈ 9.34 µM)

C/C(S)=N/C[C@H]1CN(c2ccc(-c3nnc(CS(C)(=O)=O)s3)c(F)c2)C(=O)O1
MIC (Enterococcus faecalis): 0.25 µg/mL (≈ 0.562 µM)
MIC (Haemophilus influenzae): 2 µg/mL (≈ 4.5 µM)
MIC (Moraxella catarrhalis): 0.5 µg/mL (≈ 1.12 µM)
ED50 (Mus musculus [4]): > 20 mg/kg
MIC (Staphylococcus aureus [1]): 0.5 µg/mL (≈ 1.12 µM)
MIC [2]: 0.25 µg/mL (≈ 0.562 µM)
MIC (Streptococcus pneumoniae): 0.06 µg/mL (≈ 0.135 µM)
MIC (Staphylococcus aureus [3]): 0.25 µg/mL (≈ 0.562 µM)

C/C(S)=N/C[C@H]1CN(c2ccc(-c3nncs3)c(F)c2)C(=O)O1
MIC (Enterococcus faecalis): 0.125 µg/mL (≈ 0.355 µM)
MIC (Haemophilus influenzae): 1 µg/mL (≈ 2.84 µM)
MIC (Moraxella catarrhalis): 0.25 µg/mL (≈ 0.709 µM)
ED50 (Mus musculus [5]): > 20 mg/kg
MIC (Staphylococcus aureus [1]): < 0.125 µg/mL
MIC [2]: < 0.125 µg/mL
MIC (Streptococcus pneumoniae): < 0.125 µg/mL
MIC (Staphylococcus aureus [3]): 0.25 µg/mL (≈ 0.709 µM)

COCc1nnc(-c2ccc(N3C[C@H](CNC(C)=O)OC3=O)cc2F)s1
MIC (Enterococcus faecalis): 1 µg/mL (≈ 2.63 µM)
MIC (Haemophilus influenzae): 8 µg/mL (≈ 21 µM)
MIC (Moraxella catarrhalis): 4 µg/mL (≈ 10.5 µM)
ED50 (Mus musculus [6]): 5.8 mg/kg
MIC (Staphylococcus aureus [1]): 1 µg/mL (≈ 2.63 µM)
MIC [2]: 4 µg/mL (≈ 10.5 µM)
MIC (Streptococcus pneumoniae): 0.25 µg/mL (≈ 0.657 µM)
MIC (Staphylococcus aureus [3]): 2 µg/mL (≈ 5.26 µM)

CCOC(=O)c1nnc(-c2ccc(N3C[C@H](CNC(C)=O)OC3=O)cc2F)s1
MIC (Enterococcus faecalis): 8 µg/mL (≈ 19.6 µM)
MIC (Haemophilus influenzae): > 16 µg/mL
MIC (Moraxella catarrhalis): 16 µg/mL (≈ 39.2 µM)
MIC (Staphylococcus aureus [1]): 8 µg/mL (≈ 19.6 µM)
MIC [2]: 2 µg/mL (≈ 4.9 µM)
MIC (Streptococcus pneumoniae): < 0.125 µg/mL
MIC (Staphylococcus aureus [3]): 8 µg/mL (≈ 19.6 µM)

CC(=O)NC[C@H]1CN(c2ccc(-c3nnc(O)s3)c(F)c2)C(=O)O1
MIC (Enterococcus faecalis): 1 µg/mL (≈ 2.84 µM)
MIC (Haemophilus influenzae): 4 µg/mL (≈ 11.4 µM)
MIC (Moraxella catarrhalis): 4 µg/mL (≈ 11.4 µM)
ED50 (Mus musculus [7]): 13 mg/kg
MIC (Staphylococcus aureus [1]): 1 µg/mL (≈ 2.84 µM)
MIC [2]: 0.5 µg/mL (≈ 1.42 µM)
MIC (Streptococcus pneumoniae): 0.125 µg/mL (≈ 0.355 µM)
MIC (Staphylococcus aureus [3]): 1 µg/mL (≈ 2.84 µM)

CC(=O)NC[C@H]1CN(c2ccc(-c3nnc(CC/C(C)=N/O)s3)c(F)c2)C(=O)O1
MIC (Enterococcus faecalis): 1 µg/mL (≈ 2.37 µM)
MIC (Haemophilus influenzae): 4 µg/mL (≈ 9.49 µM)
MIC (Moraxella catarrhalis): 4 µg/mL (≈ 9.49 µM)
ED50 (Mus musculus [4]): > 20 mg/kg
MIC (Staphylococcus aureus [1]): 2 µg/mL (≈ 4.75 µM)
MIC [2]: 0.5 µg/mL (≈ 1.19 µM)
MIC (Streptococcus pneumoniae): < 0.125 µg/mL
MIC (Staphylococcus aureus [3]): 2 µg/mL (≈ 4.75 µM)

CC(=O)NC[C@H]1CN(c2ccc(-c3nnc(CO)s3)c(F)c2)C(=O)O1
MIC (Enterococcus faecalis): 1 µg/mL (≈ 2.73 µM)
MIC (Haemophilus influenzae): 4 µg/mL (≈ 10.9 µM)
MIC (Moraxella catarrhalis): 2 µg/mL (≈ 5.46 µM)
ED50 (Mus musculus [8]): 8.7 mg/kg
MIC (Staphylococcus aureus [1]): 1 µg/mL (≈ 2.73 µM)
MIC [2]: 0.25 µg/mL (≈ 0.682 µM)
MIC (Streptococcus pneumoniae): < 0.125 µg/mL
MIC (Staphylococcus aureus [3]): 1 µg/mL (≈ 2.73 µM)

CC(=O)NC[C@H]1CN(c2ccc(-c3nnc(COC(C)=O)s3)c(F)c2)C(=O)O1
MIC (Enterococcus faecalis): 1 µg/mL (≈ 2.45 µM)
MIC (Haemophilus influenzae): 4 µg/mL (≈ 9.79 µM)
MIC (Moraxella catarrhalis): 2 µg/mL (≈ 4.9 µM)
ED50 (Mus musculus [9]): 18.5 mg/kg
MIC (Staphylococcus aureus [1]): 1 µg/mL (≈ 2.45 µM)
MIC [2]: 0.25 µg/mL (≈ 0.612 µM)
MIC (Streptococcus pneumoniae): < 0.125 µg/mL
MIC (Staphylococcus aureus [3]): 1 µg/mL (≈ 2.45 µM)

CC(=O)NC[C@H]1CN(c2ccc(-c3nnc(CF)s3)c(F)c2)C(=O)O1
MIC (Enterococcus faecalis): 1 µg/mL (≈ 2.71 µM)
MIC (Haemophilus influenzae): 4 µg/mL (≈ 10.9 µM)
MIC (Moraxella catarrhalis): 2 µg/mL (≈ 5.43 µM)
MIC (Staphylococcus aureus [1]): 1 µg/mL (≈ 2.71 µM)
MIC [2]: 0.25 µg/mL (≈ 0.679 µM)
MIC (Streptococcus pneumoniae): 0.25 µg/mL (≈ 0.679 µM)
MIC (Staphylococcus aureus [3]): 1 µg/mL (≈ 2.71 µM)
ED50 (Mus musculus [10]): 8.6 mg/kg

CSCc1nnc(-c2ccc(N3C[C@H](CNC(C)=O)OC3=O)cc2F)s1
MIC (Enterococcus faecalis): 1 µg/mL (≈ 2.52 µM)
MIC (Haemophilus influenzae): > 16 µg/mL
MIC (Moraxella catarrhalis): 4 µg/mL (≈ 10.1 µM)
MIC (Staphylococcus aureus [1]): 1 µg/mL (≈ 2.52 µM)
MIC [2]: 0.25 µg/mL (≈ 0.631 µM)
MIC (Streptococcus pneumoniae): 0.25 µg/mL (≈ 0.631 µM)
MIC (Staphylococcus aureus [3]): 1 µg/mL (≈ 2.52 µM)

CNCc1nnc(-c2ccc(N3C[C@H](C/N=C(/C)S)OC3=O)cc2F)s1
MIC (Enterococcus faecalis): < 0.5 µg/mL
MIC (Haemophilus influenzae): < 0.5 µg/mL
MIC (Moraxella catarrhalis): < 0.5 µg/mL
ED50 (Mus musculus [11]): > 20 mg/kg
MIC [2]: < 0.5 µg/mL
MIC (Streptococcus pneumoniae): < 0.5 µg/mL
MIC (Staphylococcus aureus [3]): < 0.5 µg/mL
